Measurements published in paper PMC4850295, “Using a Genetically Encoded Sensor to Identify Inhibitors of Toxoplasma gondii Ca^2+ Signaling” (The Journal of Biological Chemistry, 2016).
Values joined by “and” are separate entries in the source; they are usually repeats but may differ in a detail not shown here. Equal entries are not always repeated.

The molecules below were run on T1, GCaMP5-expressing T. gondii. Details: 100 uM zaprinast stimulation, 10 min pretreatment, mean of two replicates, 0.23 h, 10 µM.
T1 construct: whole extracellular parasites expressing GCaMP5 Ca2+ sensor
Design: species or system GCaMP5-expressing Toxoplasma gondii, extracellular; GCaMP5 fluorescence (cytosolic Ca2+) after 100 uM zaprinast in compound-pretreated extracellular parasites, background-subtracted, relative to zaprinast alone
Outline: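 Read-out is GCaMP5 calcium fluorescence (ex 485/em 525 nm) taken 4 min after 100 μM zaprinast at 37 °C, following 10 min compound pretreatment at 10 μM in duplicate biological replicates. Values are basal-subtracted fold change versus zaprinast-only controls; parasites held extracellular in Ringer's solution.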
For CS(=O)(=O)CCNCc1ccc(-c2ccc3ncnc(Nc4ccc(OCc5ccccc5)c(Cl)c4)c3c2)o1 [GW574783B], the “fold change in fluorescence relative to zaprinast alone” value was 0.7755 and 0.8833.

Same assay, conditions: 100 uM zaprinast stimulation; 10 min pretreatment; mean of two replicates; 0.23 h
In the case of CCc1cccc(NC(=O)Nc2ccc(Oc3ccc4nc(NC(=O)OC)[nH]c4c3)cc2)c1 [GW673715X], the “fold change in fluorescence relative to zaprinast alone” value is reported as 1.098.
In the case of CN(C)c1ccc2c(c1)/C(=C/Nc1ccc(S(N)(=O)=O)cc1)C(=O)N2 [GW416469X], the “fold change in fluorescence relative to zaprinast alone” value is reported as 1.109.
With Nc1cccc(-c2ccc3c(N)n[nH]c3c2)c1 [GSK2193613A] the “fold change in fluorescence relative to zaprinast alone” value was 0.7898.
For Cc1[nH]nc2cc(Nc3ccnc(Nc4cccc(CN5CCOCC5)c4)n3)ccc12 [GW682569X], the “fold change in fluorescence relative to zaprinast alone” value was 1.452.
CS(=O)(=O)CCN(CC#N)Cc1ccc(-c2ccc3ncnc(Nc4ccc(OCc5cccc(F)c5)c(Cl)c4)c3c2)o1 [GW616030X] was tested, and the “fold change in fluorescence relative to zaprinast alone” value was 1.169.
In the case of Nc1nccc(-c2c(-c3ccc(F)cc3)ncn2C2CCC(O)CC2)n1 (stereo not shown) [SB-223133], the “fold change in fluorescence relative to zaprinast alone” value is reported as 0.9972.
For COc1ccc(-c2nn3ncccc3c2-c2ccnc(Nc3ccc4c(c3)OCCO4)n2)cc1 [GW827106X], the “fold change in fluorescence relative to zaprinast alone” value was 0.9888.
In the case of Cc1c2ccc(N(C)c3ccnc(Nc4cccc(S(N)(=O)=O)c4)n3)cc2nn1Cc1ccccc1 [GW787226A], the “fold change in fluorescence relative to zaprinast alone” value is reported as 1.348.
With O=C(NCCCN1CCOCC1)c1cccc(Nc2nccc(Nc3ccc(Oc4ccccc4)cc3)n2)c1 [GW663929X] the “fold change in fluorescence relative to zaprinast alone” value was 1.429.
For COc1ccccc1Nc1ncc(-c2ccccc2)o1 [GW577921A], the “fold change in fluorescence relative to zaprinast alone” value was 0.9668.
With Clc1ccc(-c2nn3ncccc3c2-c2ccnc(Nc3ccc4c(c3)OCCO4)n2)cc1 [GW829116X] the “fold change in fluorescence relative to zaprinast alone” value was 0.6156.
For Cc1cccc2c(-c3ccncc3)c(-c3ccc(F)cc3)nn12 [GW461487A], the “fold change in fluorescence relative to zaprinast alone” value was 0.2322.
In the case of COc1cc(N2CCN(C(C)C)CC2)ccc1Nc1nc(Nc2cccc(F)c2C(=O)O)c2cc[nH]c2n1 [GSK1819799A], the “fold change in fluorescence relative to zaprinast alone” value is reported as 1.115.
In the case of COc1cc(Nc2ncc3c(C)nc(-c4cccc(C(F)(F)F)c4)n3n2)cc(OC)c1OC [GW837331X], the “fold change in fluorescence relative to zaprinast alone” value is reported as 0.3788.
With COc1ccc(-c2ccncc2)cc1C(N)=O [GSK605714A] the “fold change in fluorescence relative to zaprinast alone” value was 1.144.
In the case of CCS(=O)(=O)c1ccc(OC)c(Nc2ncc(-c3cccc(OC)c3)o2)c1 [GW580509X], the “fold change in fluorescence relative to zaprinast alone” value is reported as 1.14.
In the case of O=C(O[C@H]1CN[C@H](C#Cc2cc3ncnc(Nc4ccc5c(cnn5Cc5ccccc5)c4)c3s2)C1)N1CCOCC1 [GSK200398A], the “fold change in fluorescence relative to zaprinast alone” value is reported as 1.169.
In the case of O=C(NCCNc1ccnc(Nc2ccc(F)cc2)n1)c1cc2ccccc2s1 [GSK1379874A], the “fold change in fluorescence relative to zaprinast alone” value is reported as 0.6895.
With Cc1cccc(-c2cc(-c3cn[nH]c3-c3ccccn3)ccn2)c1 [GW679395X] the “fold change in fluorescence relative to zaprinast alone” value was 0.9312.
For O=C1NC(=O)C(N2CCc3ccccc32)=C1c1ccccc1Cl [SB-373598], the “fold change in fluorescence relative to zaprinast alone” value was 1.071.
For COc1cccc(CC(=O)N2CCc3cc(-c4cn(C)c5ncnc(N)c45)ccc32)c1 [GSK2608899A], the “fold change in fluorescence relative to zaprinast alone” value was 0.9364.
C#Cc1cccc(Nc2ncnc3ccc(OCCCCNCCS(C)(=O)=O)cc23)c1 [GW680191X] was tested, and the “fold change in fluorescence relative to zaprinast alone” value was 1.038.
For c1ccc(-c2[nH]ncc2-c2ccnc(-c3ccc(CN4CCOCC4)cc3)c2)nc1 [GW776245A], the “fold change in fluorescence relative to zaprinast alone” value was 1.036.
In the case of O=C1Nc2ccccc2/C1=C/Nc1ccc(-n2cncn2)cc1 [GW301789X], the “fold change in fluorescence relative to zaprinast alone” value is reported as 1.111.
Nc1nc(-c2ccccn2)c(-c2ccnc3ccccc23)s1 [GW548057X] was tested, and the “fold change in fluorescence relative to zaprinast alone” value was 0.7803.
For CC1(C)CC(n2cnc(-c3ccc(F)cc3)c2-c2ccnc(N)n2)CC(C)(C)N1 [SB-221466], the “fold change in fluorescence relative to zaprinast alone” value was 1.33.
With Cc1c2ccc(N(C)c3ccnc(Nc4cccc(S(N)(=O)=O)c4)n3)cc2nn1C [GW771127A] the “fold change in fluorescence relative to zaprinast alone” value was 1.211.
